In patent US11891359B2, “Prenylated psilocybin derivatives and methods of using” (ENVERIC B[…] INC., priority 2021, dated 2024):

Test: Solubility in the one-pot biocatalysis reaction mixture
Assay type: physicochemical
Settings: undiluted one-pot biocatalysis reaction mixture (5 mL), 30 °C, aqueous buffer; undiluted 5 mL reaction (25 mM Tris-HCl pH 8.0); dilution to 40 mL and pH 6 increased solubility
Description: Referring further to FIG. 13A, Step 1 was conducted in vitro using biocatalytic conversion. Three recombinant enzymes, the prenyl transferase PriB (SEQ.ID NO: 24), in addition to PhoNxt (SEQ.ID NO: 30), and IPKmt (SEQ.ID NO: 32) were individually expressed in E. coli using the following plasmids, respectively: pET26b(+)-PriB, pET28a(+)-IPKmt, and pET21(+)-PhoNxt. Prenyl transferase PriB (SEQ.ID NO: 24) catalyzes the stereospecific 6-prenylation of tryptophan with dimethylallyl pyrophosphate (DMAPP) as the prenyl-donor. A cDNA encoding PriB enzyme (SEQ.ID NO: 23) was synthesized and cloned into pET26b(+) vector by service provider GenScript (www.genscript.com) in-frame with a vector-encoded, N-terminal HIS epitope tag. PhoNxt (SEQ.ID NO: 30) is a non-specific acid phosphatase, while IPKmt (SEQ.ID NO: 32) is an isopentenyl phosphate kinase. Together, these two enzymes can use dimethylallyl alcohol (DMAOH) (www.sigmaaldrich.com) as the starting substrate to produce DMAPP, which in turn is a required co-substrate for PriB. cDNAs encoding IPkmt (SEQ.ID NO: 31) and PhoNxt (SEQ.ID NO: 29) were synthesized and cloned into E.coli expression vectors pET28a(+) and pET21(+), respectively using the Clonal Genes service of Twist Bioscience. Specifically, IPKmt was cloned between the NdeI and XhoI sites of pET28a(+) thus enabling an in-frame, N-terminal HIS tag in the corresponding protein. […]

## CC(C)=CCc1ccc2c(C[C@H](N)C(=O)O)c[nH]c2c1 [6-dimethylallyl-tryptophan]
  solubility: < 1100 µg/mL
